Measurements: PMC4394464, “Identification and Pharmacokinetics of Multiple Potential Bioactive Constituents after Oral Administration of Radix Astragali on Cyclophosphamide-Induced Immunosuppression in Balb/c Mice” (International Journal of Molecular Sciences, 2015)

Experiments:
[1] = Profiling of absorbed constituents and metabolites in mice plasma after oral administration of RA (UFLC-DAD-Q-TOF-MS/MS); settings: oral RA extract 6 g/kg BW; cyclophosphamide-induced immunosuppressed Balb/c mice; plasma sampled 0.25-36 h; '-' = not detected
Experimental: The peaks that appeared at the same position in the total ion chromatograms of both the dosed mice bio-samples and the RA extract, but not in the chromatograms of the controlled mice bio-samples, were regarded as absorbed constituents [22].
Following randomization into study groups, mice (6/group/male) received intraperitoneal injection once daily of cyclophosphamide (i.p. 80 mg/kg BW) for 6 days. Additionally, the control group was injected intraperitoneally with sterile physiological saline. […] Plasma was harvested by centrifugation at 3000× g for 10 min and then kept frozen at −70 °C until analysis.
After being vortexed for 1 min, the sample was centrifuged at 13,000× g at 4 °C for 30 min. The supernate was transferred into a fresh tube and evaporated with nitrogen. Then, the residue was dissolved in a 60-μL mobile phase with vortex mixing for 3 min and centrifuged at 13,000× g for 30 min. Finally, 10 μL of the supernatant were injected into the UFLC/DAD/Q-TOF-MS/MS system.
The multiple constituents in RA and the absorbed compounds in mice plasma were identified by the ultra-fast liquid chromatography/diode-array detector/quadrupole time-of-flight tandem mass spectrometry (UFLC/DAD/Q-TOF-MS/MS) method.

[2] = Pharmacokinetics of five main constituents in immunosuppressive mice plasma after oral administration of RA (HPLC-MS/MS); format: in vivo, Balb/c mice; settings: immunosuppressive Balb/c mice plasma; for AUC(0-t) / AUC(0-inf) / Cmax / half-life / Tmax: male, mouse, oral RA extract 6 g/kg BW; for AUC(0-t): 0-36 h, read-out: AUC(0–t); for AUC(0-inf): read-out: AUC(0–∞); for Cmax: read-out: Cmax; for half-life: read-out: t1/2z (converted); for Tmax: read-out: tmax
Experimental: The maximum plasma concentration (Cmax) and the time of maximum plasma concentration (tmax) were obtained from the observed data (Table 3). The plasma concentration-time profiles for calycosin-7-O-glucoside, ononin, calycosin, formononetin and astragaloside IV are shown in Figure 4.
To quantify calycosin-7-O-glucoside, ononin, calycosin, formononetin and astragaloside IV in mice, a 10-μL IS solution was added into 50 μL of plasma and mixed for 30 s. Then, 1 mL ethyl acetate was added to the tube and vortexed for 3 min. […] Ten microliters of the supernatant were injected into the HPLC-MS/MS system.
The quantification was performed by an LC-MS/MS system, which consisted of an Agilent 1200 HPLC series system and an Agilent 6410 triple quadrupole mass spectrometer (Agilent Technol., Santa Clara, CA, USA) equipped with an electrospray ionization source. Samples were separated by a rapid resolution HT C18 column (2.1 mm × 50 mm, 1.8 μm, Agilent Technol.) at 30 °C. The mobile phase consisted of 0.1 formic acid both in methanol (A) and water (B) using a gradient elution program of 25%–50% A (0–5 min) and 50%–90% (5–10 min). The flow rate was 0.2 mL/min, and the injection volume was 10 μL. Detection was performed in the positive ion mode using multiple reaction monitoring (MRM) of the m/z 447.1/285.0 for calycosin-7-O-glucoside, m/z 431.1/269.0 for ononin, m/z 285.0/137.0 for calycosin, m/z 269.0/213.0 for formononetin, m/z 807.4/627.3 for astragaloside IV and m/z 271.1/151.0 for naringenin.

Source: Dosed Plasma (time points at which the compound was detected) [1] | Molecule | also measured
1 to 36 h | NC(=O)C[C@H](N)C(=O)O (single isomer, unassigned) [Peak 2, Asparagine] | –
0.25 to 36 h | CC(C)C[C@H](N)C(=O)O (single isomer, unassigned) [Peak 9, Leucine] | –
0.25 to 36 h | Nc1ncnc2c1ncn2[C@@H]1O[C@H](CO)[C@@H](O)[C@H]1O (single isomer, unassigned) [Peak 10, Adenine nucleoside] | –
0.25 to 36 h | N[C@@H](Cc1ccccc1)C(=O)O (single isomer, unassigned) [Peak 11, Phenylalanine] | –
0.25 to 8 h | COc1cc(O[C@H]2O[C@H](CO)[C@H](O)[C@H](O)[C@H]2O[C@H]2OC[C@@](O)(CO)[C@H]2O)ccc1O (single isomer, unassigned) [Peak 13, Markhamioside F] | –
0.25 to 36 h | N[C@@H](Cc1c[nH]c2ccccc12)C(=O)O (single isomer, unassigned) [Peak 14, Tryptophan] | –
0.25 to 36 h | N[C@@H](Cc1ccc(O)cc1)C(=O)O (single isomer, unassigned) [Peak 16, Tyrosine] | –
0.25 to 6 h | COc1cc(O)c2c(=O)c(O[C@@H]3O[C@H](CO)[C@@H](O)[C@H](O)[C@H]3O)c(-c3ccc(O[C@@H]4O[C@H](CO)[C@@H](O)[C@H](O)[C@H]4O)cc3)oc2c1 (single isomer, unassigned) [Peak 18, Rhamnocitrin 3,4'-di-O-glucoside] | –
0.25 to 8 h | COc1ccc(-c2coc3cc(O[C@@H]4O[C@H](CO)[C@@H](O)[C@H](O)[C@H]4O)cc(O)c3c2=O)cc1O (single isomer, unassigned) [Peak 26, Pratensein-7-O-glucoside] | –
0.25 to 24 h | COc1ccc(-c2coc3cc(O[C@@H]4O[C@H](CO)[C@@H](O)[C@H](O)[C@H]4O)ccc3c2=O)cc1O (single isomer, unassigned) [Peak 29, Calycosin-7-O-glucoside] | AUC(0-t) [2]: 0.108 ± 0.0371 µg·h/mL; AUC(0-inf) [2]: 0.127 ± 0.0403 µg·h/mL; Cmax [2]: 0.0334 µg/mL; half-life [2]: 2.61 ± 0.67 h; Tmax [2]: 1.5 h
0.25 to 36 h | O=c1cc(-c2ccc(O)cc2)oc2cc(O[C@@H]3O[C@H](CO)[C@@H](O)[C@H](O)[C@H]3O)cc(O)c12 (single isomer, unassigned) [Peak 30, Cosmosiin] | –
0.25 to 24 h | COc1ccc(-c2coc3cc(O[C@@H]4O[C@H](CO)[C@@H](O)[C@H](O)[C@H]4O)ccc3c2=O)cc1 (single isomer, unassigned) [Peak 33, Ononin] | double-peak phenomenon, time of second peak ([2]; after oral administration of RA): 4 h; AUC(0-t) [2]: 0.228 ± 0.0597 µg·h/mL; AUC(0-inf) [2]: 0.239 ± 0.0474 µg·h/mL; Cmax [2]: 0.0514 µg/mL; half-life [2]: 1.96 ± 0.34 h; Tmax [2]: 1.5 h
0.25 to 12 h | COc1ccc2c(c1OC)OC1c3ccc(O[C@@H]4O[C@H](CO)[C@@H](O)[C@H](O)[C@H]4O)cc3OCC21 (single isomer, unassigned) [Peak 34, 9,10-dimethoxypterocarpan-3-O-glucoside] | –
0.25 to 36 h | CCCCC=CC=CC(=O)O (single isomer, unassigned) [Peak 35, 2,4-Nonadienic acid] | –
0.25 to 8 h | COc1ccc(-c2coc3cc(O[C@@H]4O[C@H](COC(C)=O)[C@@H](O)[C@H](O)[C@H]4O)ccc3c2=O)cc1 (single isomer, unassigned) [Peak 38, 6'-O-acetyl ononin] | –
3 h | CC(CCC(O)C(C)(C)O)C1C(O)CC2(C)C3CC(OC4OC(CO)C(O)C(O)C4O)C4C(C)(C)C(OC5OCC(O)C(O)C5O)CCC45CC35CCC12C (single isomer, unassigned) [Peak 43, Cyclocanthoside E] | –
0.25 to 24 h | C[C@@H]1O[C@@H](O[C@H]2[C@H](O[C@H]3[C@H](O[C@H]4CC[C@@]5(C)[C@@H](CC[C@]6(C)[C@@H]5CC=C5[C@@H]7CC(C)(C)C[C@@H](O)[C@]7(C)CC[C@]56C)[C@@]4(C)CO)O[C@H](C(=O)O)[C@@H](O)[C@@H]3O)O[C@H](CO)[C@H](O)[C@@H]2O)[C@H](O)[C@H](O)[C@H]1O (single isomer, unassigned) [Peak 47, Soyasaponin I] | –
0.25 to 24 h | CC(C)(O[C@@H]1O[C@H](CO)[C@@H](O)[C@H](O)[C@H]1O)[C@@H]1CC[C@](C)([C@H]2[C@@H](O)C[C@@]3(C)[C@@H]4C[C@H](O)[C@H]5C(C)(C)[C@@H](O[C@@H]6OC[C@@H](O)[C@H](O)[C@H]6O[C@@H]6O[C@H](CO)[C@@H](O)[C@H](O)[C@H]6O)CC[C@@]56C[C@@]46CC[C@]23C)O1 (single isomer, unassigned; peak 40) [Peak 40, Astragaloside V] | –
0.25 to 36 h | C[N+](C)(C)CCO [Peak 4, Choline] | –
0.25 to 36 h | NCCCC(=O)O [Peak 5, γ-Aminobutyric acid] | –
0.25 to 36 h | O=C(O)c1ccc(O)c(O)c1 [Peak 12, Protocatechuic acid] | –
0.25 to 36 h | COc1cc(C(=O)O)cc(OC)c1O [Peak 20, Syringic acid] | –
0.25 to 36 h | COc1cc(/C=C/C(=O)O)ccc1O [Peak 25, Ferulic acid] | –
0.25 to 36 h | COc1ccc(/C=C/C(=O)O)cc1O [Peak 27, Isoferulic acid] | –
0.25 to 36 h | O=C(O)CCCCCCCC(=O)O [Peak 32, Azelaic acid] | –
0.25 to 8 h | COc1ccc(-c2coc3cc(OC4OC(C(=O)O)C(O)C(O)C4O)ccc3c2=O)cc1 (stereo not drawn) [Peak M3, Glucuronidated formononetin] | –
0.25 to 8 h | Sulfated calycosin [Peak M1] | –
0.25 to 8 h | Sulfated formononetin [Peak M6] | –
0.25 to 8 h | Sulfated isomucronulatol [Peak M5] | –

Molecule | Source: Dosed Plasma (time points at which the compound was detected) [1] | also measured
COc1cc(/C=C/CO)cc(OC)c1O[C@@H]1O[C@H](CO)[C@@H](O)[C@H](O)[C@H]1O (single isomer, unassigned) [Peak 24, Syringin] | 0.25 to 36 h | –
CC(C)(O)[C@@H]1CC[C@](C)([C@H]2[C@@H](O)C[C@@]3(C)[C@@H]4C[C@H](O[C@@H]5O[C@H](CO)[C@@H](O)[C@H](O)[C@H]5O)[C@H]5C(C)(C)[C@@H](O[C@@H]6OC[C@@H](O)[C@H](O)[C@H]6O[C@@H]6O[C@H](CO)[C@@H](O)[C@H](O)[C@H]6O)CC[C@@]56C[C@@]46CC[C@]23C)O1 (single isomer, unassigned; peak 41) [Peak 41, Astragaloside VI] | 0.25 to 24 h | –
C[C@@H]1O[C@@H](O[C@H]2[C@H](O[C@H]3[C@H](O[C@H]4CC[C@@]5(C)[C@@H](CC[C@]6(C)[C@@H]5CC=C5[C@@H]7CC(C)(C)C[C@@H](O)[C@]7(C)CC[C@]56C)[C@@]4(C)CO)O[C@H](C(=O)O)[C@@H](O)[C@@H]3O)OC[C@@H](O)[C@@H]2O)[C@H](O)[C@H](O)[C@H]1O (single isomer, unassigned; peak 48) [Peak 48, Astragaloside VIII] | 0.25 to 24 h | –
COc1cc(C=O)cc(OC)c1O [Peak 23, Syringaldehyde] | 0.25 to 6 h | –
